# Measurements from US20250228239A1, “MOLECULES HAVING PESTICIDAL UTILITY, AND INTERMEDIATES, COMPOSITIONS, AND PROCESSES, RELATED THERETO” (priority 2024, published 2025).
# Key:
# [1] = tested on: Cabbage Looper (Trichoplusia ni, TRIPNI); experiment: Bioassays on Cabbage Looper (CL), 128-well diet tray assay; format: in vivo; settings: Trichoplusia ni; Cabbage Looper, Table ABC / ABC-DP rating; read-out: CL rating
# In short: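 Percent mortality, averaged across eight replicate wells, after second-instar larvae (1–5 per well) fed for five to seven days on diet dosed at 50 μg/cm^2. Compound was applied in acetone-water 90:10 and dried; trays kept vented at 25° C under 14:10 photoperiod.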
# [2] = tested on: Beet Armyworm (Spodoptera exigua, LAPHEG); experiment: Bioassays on Beet Armyworm (BAW), 128-well diet tray assay; format: in vivo; settings: Spodoptera exigua; Beet Armyworm, Table ABC / ABC-DP rating; read-out: BAW rating
# In short: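 One to five second-instar larvae per well on artificial diet surface-treated with 50 μg/cm^2 test molecule (applied in 90:10 acetone-water, dried), eight wells per compound. Trays held vented at 25° C., 14:10 light-dark for five to seven days; percent mortality averaged over the eight wells.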
Structure (SMILES),pest or weed control at 50 µg/cm2 [1],pest or weed control at 50 µg/cm2 [2]
"O=C(COC(F)(F)F)Nc1c(F)ccc(NC(=O)c2cc(NC(=O)[C@H]3[C@H](c4cc(F)cc(C(F)(F)F)c4)C3(Cl)Cl)ccc2Cl)c1F [F1772, 2-Chloro-5-((1R,3R)-2,2-dichloro-3-(3-fluoro-5-(trifluoromethyl)phenyl)cyclopropane-1-carboxamido)-N-(2,4-difluoro-3-(2-(trifluoromethoxy)acetamido)phenyl)benzamide]",50 to 100%,50 to 100%
"CC(OC(F)(F)F)C(=O)Nc1c(F)ccc(NC(=O)c2cc(NC(=O)[C@H]3[C@H](c4cc(F)cc(C(F)(F)F)c4)C3(Cl)Cl)ccc2Cl)c1F (stereo partly drawn) [F1773, 2-Chloro-5-((1R,3R)-2,2-dichloro-3-(3-fluoro-5-(trifluoromethyl)phenyl)cyclopropane-1-carboxamido)-N-(2,4-difluoro-3-(2-(trifluoromethoxy)propanamido)phenyl)benzamide]",50 to 100%,50 to 100%
"O=C(COC(F)(F)F)Nc1ccc(F)c(NC(=O)c2cc(NC(=O)[C@H]3[C@H](c4cc(Cl)c(Cl)c(Cl)c4)C3(Cl)Cl)cc(F)c2F)c1F [F1777, 5-((1R,3R)-2,2-Dichloro-3-(3,4,5-trichlorophenyl)cyclopropane-1-carboxamido)-N-(2,6-difluoro-3-(2-(trifluoromethoxy)acetamido)phenyl)-2,3-difluorobenzamide]",50 to 100%,50 to 100%
"O=C(Nc1c(F)ccc(NC(=O)C2CCCO2)c1F)c1cc(NC(=O)[C@H]2[C@H](c3cc(Cl)c(Cl)c(Cl)c3)C2(Cl)Cl)cc(F)c1F (stereo partly drawn) [F1778, N-(3-(5-((1R,3R)-2,2-Dichloro-3-(3,4,5-trichlorophenyl)cyclopropane-1-carboxamido)-2,3-difluorobenzamido)-2,4-difluorophenyl)tetrahydrofuran-2-carboxamide]",50 to 100%,50 to 100%
"O=C(Nc1c(F)ccc(NC(=O)C(F)(F)C(F)(F)C(F)(F)F)c1F)c1cc(NC(=O)[C@H]2[C@H](c3cc(Cl)c(Cl)c(Cl)c3)C2(Cl)Cl)cc(F)c1F [F1779, 5-((1R,3R)-2,2-Dichloro-3-(3,4,5-trichlorophenyl)cyclopropane-1-carboxamido)-N-(2,6-difluoro-3-(2,2,3,3,4,4,4-heptafluorobutanamido)phenyl)-2,3-difluorobenzamide]",50 to 100%,50 to 100%
"O=C(Nc1ccc(F)c(NC(=O)C2(F)OC(F)(F)C(F)(F)C(F)(F)C2(F)F)c1F)c1cc(NC(=O)[C@H]2[C@H](c3ccc(F)c(C(F)(F)F)c3)C2(Cl)Cl)ccc1Cl (stereo partly drawn) [F1783, N-(3-(2-Chloro-5-((1R,3R)-2,2-dichloro-3-(4-fluoro-3-(trifluoromethyl)phenyl)cyclopropane-1-carboxamido)benzamido)-2,6-difluorophenyl)-2,3,3,4,4,5,5,6,6-nonafluorotetrahydro-2H-pyran-2-carboxamide]",50 to 100%,50 to 100%
"C#CCNc1c(F)ccc(NC(=O)c2cc(NC(=O)[C@H]3[C@H](c4ccc(F)c(C(F)(F)F)c4)C3(Cl)Cl)ccc2Cl)c1F [F1807, 2-Chloro-5-((1R,3R)-2,2-dichloro-3-(4-fluoro-3-(trifluoromethyl)phenyl)cyclopropane-1-carboxamido)-N-(2,4-difluoro-3-(prop-2-yn-1-ylamino)phenyl)benzamide]",50 to 100%,50 to 100%
"C#CCN(C(=O)COC(F)(F)F)c1c(F)ccc(NC(=O)c2cc(NC(=O)[C@H]3[C@H](c4ccc(F)c(C(F)(F)F)c4)C3(Cl)Cl)ccc2Cl)c1F [F1811, 2-Chloro-5-((1R,3R)-2,2-dichloro-3-(4-fluoro-3-(trifluoromethyl)phenyl)cyclopropane-1-carboxamido)-N-(2,4-difluoro-3-(N-(prop-2-yn-1-yl)-2-(trifluoromethoxy)acetamido)phenyl)benzamide]",50 to 100%,50 to 100%
"O=C(Nc1c(F)ccc(NC(=O)c2cc(NC(=O)[C@H]3[C@H](c4ccc(F)c(C(F)(F)F)c4)C3(Cl)Cl)ccc2Cl)c1F)c1ccno1 [F1816, N-(3-(2-Chloro-5-((1R,3R)-2,2-dichloro-3-(4-fluoro-3-(trifluoromethyl)phenyl)cyclopropane-1-carboxamido)benzamido)-2,6-difluorophenyl)isoxazole-5-carboxamide]",50 to 100%,50 to 100%
"O=C(Nc1c(F)ccc(NC(=O)c2cc(NC(=O)[C@H]3[C@H](c4ccc(F)c(C(F)(F)F)c4)C3(Cl)Cl)ccc2Cl)c1F)c1ccns1 [F1817, N-(3-(2-Chloro-5-((1R,3R)-2,2-dichloro-3-(4-fluoro-3-(trifluoromethyl)phenyl)cyclopropane-1-carboxamido)benzamido)-2,6-difluorophenyl)isothiazole-5-carboxamide]",50 to 100%,50 to 100%
"O=C(Nc1c(F)ccc(NC(=O)c2cc(NC(=O)[C@H]3[C@H](c4ccc(F)c(C(F)(F)F)c4)C3(Cl)Cl)ccc2Cl)c1F)c1cnns1 [F1820, N-(3-(2-Chloro-5-((1R,3R)-2,2-dichloro-3-(4-fluoro-3-(trifluoromethyl)phenyl)cyclopropane-1-carboxamido)benzamido)-2,6-difluorophenyl)-1,2,3-thiadiazole-5-carboxamide]",50 to 100%,50 to 100%
"O=C(Nc1ccc(F)c(NC(=O)C2(COC(F)(F)F)CC2)c1F)c1cc(NC(=O)[C@H]2[C@H](c3ccc(F)c(C(F)(F)F)c3)C2(Cl)Cl)ccc1Cl [F1821, 2-Chloro-5-((1R,3R)-2,2-dichloro-3-(4-fluoro-3-(trifluoromethyl)phenyl)cyclopropane-1-carboxamido)-N-(2,4-difluoro-3-(1-((trifluoromethoxy)methyl)cyclopropane-1-carboxamido)phenyl)benzamide]",50 to 100%,50 to 100%
"O=C(Nc1c(F)ccc(NC(=O)c2cc(NC(=O)[C@H]3[C@H](c4ccc(F)c(C(F)(F)F)c4)C3(Cl)Cl)ccc2Cl)c1F)c1cc(C(F)(F)F)no1 [F1824, N-(3-(2-Chloro-5-((1R,3R)-2,2-dichloro-3-(4-fluoro-3-(trifluoromethyl)phenyl)cyclopropane-1-carboxamido)benzamido)-2,6-difluorophenyl)-3-(trifluoromethyl)isoxazole-5-carboxamide]",50 to 100%,50 to 100%
"CC(OC(F)F)C(=O)Nc1c(F)ccc(NC(=O)c2cc(NC(=O)[C@H]3[C@H](c4ccc(F)c(C(F)(F)F)c4)C3(Cl)Cl)ccc2Cl)c1F (stereo partly drawn) [F1828, 2-Chloro-5-((1R,3R)-2,2-dichloro-3-(4-fluoro-3-(trifluoromethyl)phenyl)cyclopropane-1-carboxamido)-N-(3-(2-(difluoromethoxy)propanamido)-2,4-difluorophenyl)benzamide]",50 to 100%,50 to 100%
"CC(C(=O)Nc1c(F)ccc(NC(=O)c2cc(NC(=O)[C@H]3[C@H](c4ccc(F)c(C(F)(F)F)c4)C3(Cl)Cl)ccc2Cl)c1F)C(F)(F)F (stereo partly drawn) [F1832, 2-Chloro-5-((1R,3R)-2,2-dichloro-3-(4-fluoro-3-(trifluoromethyl)phenyl)cyclopropane-1-carboxamido)-N-(2,4-difluoro-3-(3,3,3-trifluoro-2-methylpropanamido)phenyl)benzamide]",50 to 100%,50 to 100%
